≈ marks a conversion by molar mass, not a printed value. Where two headings read alike, the source gives them in different places. Marks after values point to notes of the source that are not given here.
Assays:
[1] = system: Mtb H37Ra ATTC 25177; test: MIC determination, serial dilution in Middlebrook 7H9, and FICI; format: cell-based, Mycobacterium tuberculosis
[2] = system: H37RV ATTC 25618; test: as above; format: cell-based, Mycobacterium tuberculosis
[3] = system: clinical isolate 192 (susceptible); test: microbe, parasite or virus in culture; format: cell-based, Mycobacterium tuberculosis
[4] = system: clinical isolate 253/16; test: microbe, parasite or virus in culture; format: cell-based, Mycobacterium tuberculosis
[5] = system: GMK cells; test: Cytotoxicity, MTT assay; format: cell-based, African green monkey; settings: GMK cells, 48 h exposure, MTT; highest tested concentration 500 μg/mL
Protocol: (§1) The cytotoxicity experiment was performed using African green monkey kidney epithelial cells (GMK) obtained from BIOMED-Lublin S.A. (Lublin, Poland). The cells were cultured in EMEM medium (ATCC-LGC Standards, Cumberland, ME, USA) supplemented with 10% foetal bovine serum (FBS, Pan-Biotech, Aidenbach, Germany), penicillin (100 U/mL), and streptomycin (100 μg/mL) (Sigma-Aldrich, St. Louis, MO, USA). The GMK cells were maintained at 37 °C in a humidified atmosphere of 5% CO2 and 95% air. The GMK cells were seeded in 96-multiwell plates in 100 μL of the complete EMEM medium at a concentration of 3 × 10^5 cells/mL (3 × 10^4 cells/well) and the plates were maintained at 37 °C for 24 h. Then, the culture medium was replaced with 100 µL of different concentrations of tested agents and 2 reference anti-mycobacterial drugs—rifampicin and isoniazid. The stock solutions of all compounds were prepared in DMSO (Sigma-Aldrich, St. Louis, MO, USA), thus the highest solvent concentrations (1% and 0.5% DMSO) used in the experiment were tested in parallel to exclude potential toxicity associated with the use of DMSO. Different concentrations of the tested agents were obtained by six serial 2-fold dilutions using culture medium (the highest tested concentration was equal 500 µg/mL). GMK cells maintained in culture medium without anti-mycobacterial agent served as a negative control of cytotoxicity. The cells were exposed to tested compounds and reference drugs for 48 h, then cytotoxicity test was performed using MTT assay (Sigma-Aldrich, St. Louis, MO, USA) as it was described previously. The cytotoxicity test was repeated in three separate experiments (n = 3) and each experiment was carried out in quadruplicate. The IC50 values (concentration reducing viability of GMK cells by 50%) were determined using GraphPad Prism 5, Version 5.03 software (GraphPad Software, Inc., La Jolla, CA, USA).

[6] = Cytotoxicity, MTT assay; format: cell-based, African green monkey; settings: African green monkey; for IC50 at 48 h: GMK cells, 48 h exposure, MTT, highest tested concentration 500 μg/mL
Protocol: as §1

[7] = system: reference virulent strain H37Rv; design: method as in PMID 26400221; settings: Alamar Blue technique, 8 days of incubation ref 36; cited from earlier work
[8] = system: Vero cell line; settings: cited from earlier work
[9] = compounds tested separately, H37Rv
[10] = compounds tested separately, 192
[11] = compounds tested separately, 253/16
[12] = Mycobacterium tuberculosis, compounds tested separately, read-out: MIC
[13] = Mycobacterium tuberculosis, compounds tested separately, H37Rv, read-out: MIC
[14] = Mycobacterium tuberculosis, H37RV
[15] = GMK cells (African green monkey kidney epithelial cells)
[16] = Mycobacterium tuberculosis, subinhibitory concentration of the terpene, read-out: MIC for EMB in a Presence of Terpenes
[17] = Mycobacterium tuberculosis, subinhibitory concentration of the terpene, read-out: MIC for INH in a Presence of Terpenes
[18] = Mycobacterium tuberculosis, subinhibitory concentration of the terpene, read-out: MIC for RMP in a Presence of Terpenes
[19] = Mycobacterium tuberculosis, H37RV, read-out: MIC for INH in a Presence of Terpenes
[20] = Mycobacterium tuberculosis, H37Rv, subinhibitory concentration of the terpene, read-out: MIC for EMB in a Presence of Terpenes
[21] = Mycobacterium tuberculosis, H37Rv, subinhibitory concentration of the terpene, read-out: MIC for RMP in a Presence of Terpenes
[22] = Mycobacterium tuberculosis, read-out: MIC for EMB in a Presence of Terpenes
[23] = Mycobacterium tuberculosis, read-out: MIC for INH in a Presence of Terpenes
[24] = Mycobacterium tuberculosis, read-out: MIC for RMP in a Presence of Terpenes

C=C(C)[C@H]1CC=C(C)CC1 [(R)-limonene]
MIC ([1]; compounds tested separately): 32 µg/mL
MIC [2, 9]: 128 µg/mL
MIC [3, 10]: 128 µg/mL (≈ 940 µM)
MIC [4, 11]: 256 µg/mL (≈ 1880 µM)
IC50 (cytotoxicity) [5]: >500 µg/mL

CC[C@@H](CO)NCCN[C@@H](CC)CO [EMB, ethambutol, reference compound]
MIC [1, 12]: 4 µg/mL
MIC [2, 13]: 0.25 µg/mL
MIC ([3]; Mycobacterium tuberculosis): < 0.125 µg/mL
MIC ([4]; Mycobacterium tuberculosis): 64 µg/mL (≈ 313 µM)

NNC(=O)c1ccncc1 [INH, isoniazid, reference compound]
MIC [1, 12]: 0.125 µg/mL
MIC [2, 14]: < 0.125 µg/mL
MIC ([3]; Mycobacterium tuberculosis): < 0.125 µg/mL
MIC ([4]; Mycobacterium tuberculosis): 8 µg/mL (≈ 58.3 µM)
IC50 at 48 h [6, 15]: > 500 µg/mL

CO[C@H]1/C=C/O[C@@]2(C)Oc3c(C)c(O)c4c(O)c(c(/C=N/N5CCN(C)CC5)c(O)c4c3C2=O)NC(=O)/C(C)=C\C=C\[C@H](C)[C@H](O)[C@@H](C)[C@@H](O)[C@@H](C)[C@H](OC(C)=O)[C@@H]1C [RMP, rifampicin, reference compound]
MIC [1, 12]: 1 µg/mL
MIC [2, 13]: 0.25 µg/mL
MIC ([3]; Mycobacterium tuberculosis): < 0.125 µg/mL
MIC ([4]; Mycobacterium tuberculosis): 4 µg/mL (≈ 4.86 µM)
IC50 at 48 h [6, 15]: 142 µg/mL (≈ 172 µM)

CC(C)=CCC[C@](C)(O)C1CC=C(C)CC1 (stereo partly drawn) [bisabolol]
MIC ([1]; compounds tested separately): 64 µg/mL
MIC [2, 9]: 16 µg/mL
MIC [3, 10]: 16 µg/mL (≈ 72 µM)
MIC [4, 11]: 128 µg/mL (≈ 576 µM)
IC50 (cytotoxicity) [5]: 71.12 µg/mL (≈ 320 µM)

Cc1ccc(C(C)C)cc1O [carvacrol]
MIC [7]: 2.02 µg/mL (≈ 13.4 µM)

C=CC(=C)CCC=C(C)C [myrcene]
MIC [1, 12]: 128 µg/mL
MIC [1, 16]: 0.5 µg/mL
MIC [1, 17]: 0.0625 µg/mL
MIC [1, 18]: 0.125 µg/mL
MIC [2, 14]: 256 µg/mL
MIC [2, 19]: < 0.125 µg/mL
MIC [2, 20]: 0.25 µg/mL
MIC [2, 21]: 0.25 µg/mL
MIC ([3]; Mycobacterium tuberculosis): 256 µg/mL (≈ 1880 µM)
MIC [3, 22]: < 0.125 µg/mL
MIC [3, 23]: < 0.125 µg/mL
MIC [3, 24]: < 0.125 µg/mL
MIC ([4]; Mycobacterium tuberculosis): > 512 µg/mL
MIC [4, 22]: 64 µg/mL
MIC [4, 23]: 8 µg/mL
MIC [4, 24]: 4 µg/mL
IC50 (cytotoxicity) ([8]; determined on Vero cell Line ref 31): 200 * μg/mL
cytotoxic activity ([8]; up to a concentration of 200 μg/mL, Vero cell line ref 33): did not present cytotoxic activity

Cc1ccc(C(C)C)cc1 [p-cymene]
MIC [7]: 91 µg/mL (≈ 678 µM)

C=C1CCC2(C(C)C)CC12 (stereo not drawn) [sabinene]
MIC [1, 12]: 64 µg/mL
MIC [1, 16]: 0.5 µg/mL
MIC [1, 17]: 0.0625 µg/mL
MIC [1, 18]: 0.0625 µg/mL
MIC [2, 14]: 128 µg/mL
MIC [2, 19]: < 0.125 µg/mL
MIC [2, 20]: 0.25 µg/mL
MIC [2, 21]: 0.25 µg/mL
MIC ([3]; Mycobacterium tuberculosis): 128 µg/mL (≈ 940 µM)
MIC [3, 22]: < 0.125 µg/mL
MIC [3, 23]: < 0.125 µg/mL
MIC [3, 24]: < 0.125 µg/mL
MIC ([4]; Mycobacterium tuberculosis): 256 µg/mL (≈ 1880 µM)
MIC [4, 22]: 64 µg/mL
MIC [4, 23]: 8 µg/mL
MIC [4, 24]: 4 µg/mL
IC50 at 48 h [6]: 348 µg/mL (≈ 2550 µM)

Cc1ccc(C(C)C)c(O)c1 [thymol]
MIC [7]: 0.78 µg/mL (≈ 5.19 µM)

CC1=CCC2CC1C2(C)C (stereo not drawn) [α-pinene]
MIC [1, 12]: 128 µg/mL
MIC [1, 16]: 1 µg/mL
MIC [1, 17]: 0.125 µg/mL
MIC [1, 18]: 0.0625 µg/mL
MIC [2, 14]: 128 µg/mL
MIC ([2]; Mycobacterium tuberculosis, H37RV, read-out: MIC for EMB in a Presence of Terpenes): 0.125 µg/mL
MIC [2, 19]: < 0.125 µg/mL
MIC [2, 21]: 0.25 µg/mL
MIC ([3]; Mycobacterium tuberculosis): 128 µg/mL (≈ 940 µM)
MIC [3, 22]: < 0.125 µg/mL
MIC [3, 23]: < 0.125 µg/mL
MIC [3, 24]: < 0.125 µg/mL
MIC ([4]; Mycobacterium tuberculosis): 256 µg/mL (≈ 1880 µM)
MIC [4, 22]: 32 µg/mL
MIC [4, 23]: 8 µg/mL
MIC [4, 24]: 4 µg/mL
IC50 at 48 h [6, 15]: > 500 µg/mL
viability at 48 h, 500 µg/mL ([6]; GMK cells (African green monkey kidney epithelial cells), exposure to the highest tested concentration (500 μg/mL)): ~90%

C=C1CC/C=C(\C)CC[C@@H]2[C@@H]1CC2(C)C [β-caryophyllene]
MIC [7]: 100 µg/mL (≈ 489 µM)

C=C[C@]1(C)CC[C@@H](C(=C)C)C[C@H]1C(=C)C [β-elemene]
MIC ([1]; compounds tested separately): 32 µg/mL
MIC [2, 9]: 256 µg/mL
MIC [3, 10]: 256 µg/mL (≈ 1250 µM)
MIC [4, 11]: >512 µg/mL

(S)-limonene
MIC ([1]; compounds tested separately): 32 µg/mL
MIC [2, 9]: 256 µg/mL
MIC [3, 10]: 256 µg/mL
MIC [4, 11]: >512 µg/mL
IC50 (cytotoxicity) [5]: >500 µg/mL

From paper PMC6017631, “The Effect of Combining Natural Terpenes and Antituberculous Agents against Reference and Clinical Mycobacterium tuberculosis Strains” (Molecules : A Journal of Synthetic Chemistry and Natural …, 2018)
